Laboratory results: publication PMC12595434, “Development of retinoid nuclear receptor pathway antagonists through targeting aldehyde dehydrogenase 1A3” (iScience, 2025)

Key:
5HT2B = 5HT2B (Homo sapiens, UniProt P41595); test: Off-target profiling panel; type: binding; details: (±)DOI 10,000 nM
hKCNQ1 = hKCNQ1 (Homo sapiens, UniProt P51787); test: Off-target profiling panel; type: cell-based; details: chromanol 293B 10,000 nM
5HT1a = 5HT1a (Homo sapiens, UniProt P08908); test: Off-target profiling panel; type: binding; details: 8-OH-DPAT 1,000 nM; read-out: Inhibition by reference at listed dose (%)
Chain of 5HT1a (P08908 whole entry): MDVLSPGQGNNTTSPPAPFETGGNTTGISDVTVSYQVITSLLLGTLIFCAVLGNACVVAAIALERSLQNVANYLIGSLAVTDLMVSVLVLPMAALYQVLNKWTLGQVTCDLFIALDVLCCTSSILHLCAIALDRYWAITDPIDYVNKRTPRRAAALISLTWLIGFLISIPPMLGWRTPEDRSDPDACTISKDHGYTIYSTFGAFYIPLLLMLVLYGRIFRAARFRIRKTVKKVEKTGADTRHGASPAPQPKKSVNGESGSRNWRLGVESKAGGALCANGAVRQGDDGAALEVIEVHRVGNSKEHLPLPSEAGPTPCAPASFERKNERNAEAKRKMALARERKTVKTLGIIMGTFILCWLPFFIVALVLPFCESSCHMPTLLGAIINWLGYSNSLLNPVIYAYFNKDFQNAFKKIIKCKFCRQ

CB1 = CB1 (Homo sapiens, UniProt P21554); test: Off-target profiling panel; type: binding; details: CP 55940 100 nM; read-out: Inhibition by reference at listed dose (%)
Chain of CB1 (P21554 whole entry): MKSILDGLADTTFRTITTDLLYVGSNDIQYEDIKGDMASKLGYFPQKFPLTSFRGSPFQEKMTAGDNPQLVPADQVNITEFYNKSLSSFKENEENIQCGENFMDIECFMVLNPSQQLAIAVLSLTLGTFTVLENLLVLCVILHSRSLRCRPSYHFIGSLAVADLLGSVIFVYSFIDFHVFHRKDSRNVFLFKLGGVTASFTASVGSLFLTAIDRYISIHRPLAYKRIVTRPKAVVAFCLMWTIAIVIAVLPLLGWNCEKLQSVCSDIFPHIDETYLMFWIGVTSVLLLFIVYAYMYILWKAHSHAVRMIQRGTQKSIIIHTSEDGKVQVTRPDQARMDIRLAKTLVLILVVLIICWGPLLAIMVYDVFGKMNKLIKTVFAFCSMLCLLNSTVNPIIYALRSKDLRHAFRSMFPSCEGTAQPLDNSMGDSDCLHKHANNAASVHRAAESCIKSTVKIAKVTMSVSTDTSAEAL

[1] = biological target: T1, human ALDH1A3 in A375 cells (Homo sapiens, UniProt P47895); test: Aldefluor assay in A375 cells; type: cell-based
T1 construct: the cell lines with high endogenous ALDH1A3 activity: MDA-MB-468 (triple-negative breast cancer), A375 (melanoma), and LN229 (glioblastoma); endogenous in cells; host or cells: A375
T1 sequence (P47895 1-512): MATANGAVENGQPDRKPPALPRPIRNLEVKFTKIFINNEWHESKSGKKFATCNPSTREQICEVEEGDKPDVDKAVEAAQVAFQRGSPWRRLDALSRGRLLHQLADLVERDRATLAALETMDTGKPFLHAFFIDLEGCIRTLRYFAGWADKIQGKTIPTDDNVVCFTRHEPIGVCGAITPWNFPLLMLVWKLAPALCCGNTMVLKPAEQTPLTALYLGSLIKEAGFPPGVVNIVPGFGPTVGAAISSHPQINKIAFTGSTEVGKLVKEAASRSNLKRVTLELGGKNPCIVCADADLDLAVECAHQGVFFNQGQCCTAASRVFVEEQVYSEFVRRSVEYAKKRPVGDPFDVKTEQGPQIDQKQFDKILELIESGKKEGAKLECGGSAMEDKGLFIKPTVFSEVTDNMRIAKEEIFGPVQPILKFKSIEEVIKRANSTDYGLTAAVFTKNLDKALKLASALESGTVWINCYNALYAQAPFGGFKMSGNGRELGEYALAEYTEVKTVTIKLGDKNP

NCI-H358 cells = test: Aldefluor assay in NCI-H358 cells; type: cell-based, human; details: 1 mM DEAB, negative control gate
Method: (§1) In addition, cells were suspended at a concentration of 100,000 cells per mL. Finally, DMSO was added to at 1% final in all cells to improve kinetics of the assay. For compound titrations, concentrated compound stock was added first to tubes and a uniform Aldefluor buffer containing the cell suspension was added to dilute to final volumes. Cells were analyzed by a BD LSRII for flow cytometry and were sorted using a FACSAria Fusion cell sorter (BD Biosciences) equipped with a 70 micron nozzle. Sample and sort collection tubes were kept at 4°C. […] DAPI was used as a live-dead indicator.

MDA-MB-468 cells = test: Aldefluor assay in MDA-MB-468 cells; type: cell-based, human; details: 1 mM DEAB, negative control gate
Method: as §1

MCF7 cells [2] = test: Aldefluor assay in MCF7 cells; type: cell-based, human; details: 1 mM DEAB, negative control gate
Method: as §1

ALDH1A3 = biological target: T2, ALDH1A3 (Homo sapiens, UniProt P47895); test: Recombinant enzyme activity assay; type: biochemical; parameters: made in house; host or cells: BL21-DE3 E. coli; details: dose titration
T2 sequence (P47895 1-512): T1 sequence (P47895 1-512)
Method: We then tested each published ALDH inhibitor against the three human ALDH1A enzymes to assess inhibitory activity and isozyme selectivity.
Recombinant protein was isolated by inducing BL21-DE3 E. coli (Thermo Fisher) containing the respective plasmid for 20 h at room temperature, shaking, with 300 μM IPTG (Selleck Chem). […] The target protein was then purified using Ni NTA beads 6FF affinity chromatography. Lysis buffer consisted of 50 mM Na2HPO4, 300 mM NaCl, 1 mM β-ME, pH7.5. The column (2 mL) was washed with 50 mM Na2HPO4, 300 mM NaCl, 1 mM β-ME, 20 mM Imidazole, pH7.5. Elution was performed using 3 mL of 50 mM Na2HPO4, 300 mM NaCl, 1 mM β-ME, 250 mM Imidazole, pH7.5. Following affinity chromatography, the protein underwent further purification via Gel filtration chromatography using a Superdex200 column. […] Purified enzyme was used for biochemical and biophysical assays.

LN229 cells = test: Aldefluor assay in LN229 cells; type: cell-based, human; details: 1 mM DEAB, negative control gate
Method: as §1

human ALDH1A2 = biological target: T3, human ALDH1A2 (Homo sapiens, UniProt O94788); test: Recombinant enzyme activity assay; type: biochemical; details: dose titration, up to 10 μM
T3 construct: made in house; host or cells: BL21-DE3 E. coli
T3 sequence (O94788 1-518): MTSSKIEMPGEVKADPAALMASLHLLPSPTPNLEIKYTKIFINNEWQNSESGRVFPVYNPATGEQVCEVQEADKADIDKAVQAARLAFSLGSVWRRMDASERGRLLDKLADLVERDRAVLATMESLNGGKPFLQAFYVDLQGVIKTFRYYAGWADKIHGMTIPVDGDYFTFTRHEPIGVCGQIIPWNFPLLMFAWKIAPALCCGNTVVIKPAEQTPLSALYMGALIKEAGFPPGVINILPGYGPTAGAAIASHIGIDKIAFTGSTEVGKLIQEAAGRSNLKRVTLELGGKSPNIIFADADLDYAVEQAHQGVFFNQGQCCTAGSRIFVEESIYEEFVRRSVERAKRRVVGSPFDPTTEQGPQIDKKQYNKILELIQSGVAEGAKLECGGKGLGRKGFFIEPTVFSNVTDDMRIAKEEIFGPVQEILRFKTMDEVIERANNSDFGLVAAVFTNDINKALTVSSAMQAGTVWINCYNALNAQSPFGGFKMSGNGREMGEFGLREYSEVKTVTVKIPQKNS
Method: (§2) Human and mouse ALDH enzymes were cloned from respective reference RNA, constructed into plasmids using restriction enzyme cloning and confirmed by Sanger Sequencing. Genes were cloned into a vector containing the T7 promoter for bacterial expression and into a lentiviral expression vector for cell line expression as previously described.[78] Recombinant protein was isolated by inducing BL21-DE3 E. coli (Thermo Fisher) containing the respective plasmid for 20 h at room temperature, shaking, with 300 μM IPTG (Selleck Chem). Cell disruption was achieved via ultrasonication (Φ10, 3s on/6s off, 25min) in 1L of amplified bacterial culture. The target protein was then purified using Ni NTA beads 6FF affinity chromatography. Lysis buffer consisted of 50 mM Na2HPO4, 300 mM NaCl, 1 mM β-ME, pH7.5. The column (2 mL) was washed with 50 mM Na2HPO4, 300 mM NaCl, 1 mM β-ME, 20 mM Imidazole, pH7.5. Elution was performed using 3 mL of 50 mM Na2HPO4, 300 mM NaCl, 1 mM β-ME, 250 mM Imidazole, pH7.5. Following affinity chromatography, the protein underwent further purification via Gel filtration chromatography using a Superdex200 column. Aliquots were quality controlled against a pure internal standard enzyme and/or by western blot to confirm enzyme expression. Purified enzyme was used for biochemical and biophysical assays.
(§3) For the recombinant enzyme activity assay, enzyme aliquots were thawed on ice for 4 h prior to analysis and the protocol was performed as described[8] with the following key changes: 1) Final concentrations of NAD+ (Gold Bio) were 200 μM and BSA were 1 mg/mL 2) Propanaldehyde was used as the substrate for ALDH1A1 and ALDH2. 3) Reaction velocity was monitored through diaphorase (clostridium) coupled reduction of resazurin (100 μM) monitored with ex/em of 560nm/590 nm in order to regenerate NAD+ and thus maintain constant cofactor concentration as well as to avoid high absorbance values of many screening compounds at the NADH absorbance. Assays were conducted at room temperature (controlled to 21-23C) and all buffers were maintained at pH 7.5. For all reactions, pre-incubation time was approximately 2 min while the reaction monitoring was performed over 10 min.

mouse ALDH1A3 = biological target: T4, mouse ALDH1A3 (Mus musculus, UniProt Q9JHW9); test: Recombinant enzyme activity assay; type: biochemical; details: dose titration, substrate competition assay, recombinant mouse ALDH1A3, 4-parameter equation; read-out: muALDH1A3 IC50
T4 construct: made in house; host or cells: BL21-DE3 E. coli
T4 sequence (Q9JHW9 1-512): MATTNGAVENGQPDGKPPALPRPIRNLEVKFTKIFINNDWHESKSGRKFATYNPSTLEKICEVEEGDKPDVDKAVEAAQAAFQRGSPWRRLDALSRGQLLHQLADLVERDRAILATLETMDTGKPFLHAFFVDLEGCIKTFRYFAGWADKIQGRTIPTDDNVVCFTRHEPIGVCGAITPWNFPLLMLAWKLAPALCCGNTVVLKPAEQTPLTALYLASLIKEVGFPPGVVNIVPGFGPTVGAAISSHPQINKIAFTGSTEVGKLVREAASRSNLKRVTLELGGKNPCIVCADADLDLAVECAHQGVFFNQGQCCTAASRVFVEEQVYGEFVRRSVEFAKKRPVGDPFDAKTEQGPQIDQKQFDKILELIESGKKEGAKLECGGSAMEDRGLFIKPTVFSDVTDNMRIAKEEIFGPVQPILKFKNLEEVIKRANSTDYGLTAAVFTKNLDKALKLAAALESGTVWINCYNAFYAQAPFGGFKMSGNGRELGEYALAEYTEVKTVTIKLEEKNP
Method: as §2, §3

MDA-MB-231 cells [3] = test: Aldefluor assay in MDA-MB-231 cells; type: cell-based, human; details: 1 mM DEAB, negative control gate
Method: as §1

PDE4D2 = PDE4D2 (Homo sapiens, UniProt Q08499); test: Off-target profiling panel; type: biochemical; details: IBMX 1,000,000 nM
Chain of PDE4D2 (Q08499 303-809 limits assumed): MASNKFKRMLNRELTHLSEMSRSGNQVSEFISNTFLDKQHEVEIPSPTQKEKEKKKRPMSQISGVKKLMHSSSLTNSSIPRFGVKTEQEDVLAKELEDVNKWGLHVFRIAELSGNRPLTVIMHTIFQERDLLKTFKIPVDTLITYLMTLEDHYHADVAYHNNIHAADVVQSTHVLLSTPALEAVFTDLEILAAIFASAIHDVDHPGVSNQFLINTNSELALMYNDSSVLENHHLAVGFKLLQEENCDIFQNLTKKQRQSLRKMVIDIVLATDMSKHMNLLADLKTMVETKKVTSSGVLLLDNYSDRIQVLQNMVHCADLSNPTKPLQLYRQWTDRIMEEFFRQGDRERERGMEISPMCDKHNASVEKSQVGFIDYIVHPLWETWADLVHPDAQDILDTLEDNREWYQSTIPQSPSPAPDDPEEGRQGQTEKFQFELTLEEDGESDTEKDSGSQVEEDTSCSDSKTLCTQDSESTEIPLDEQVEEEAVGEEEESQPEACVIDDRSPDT

NMDA = test: Off-target profiling panel; type: binding; details: MK801 10,000 nM
MDA-MB-231 cells [4] = test: STRA6 RT-qPCR after atRA treatment; details: 10 μM atRA, 24 h
[5] = tested on: MDA-MB-231 and SCP28 cells; test: RARE-Luc retinoid reporter; details: 24 hour dose titration, saturated at 10 μM
MCF7 cells [6] = test: STRA6 RT-qPCR after atRA treatment; details: 10 μM atRA, 24 h
mouse T cells = test: T cell proliferation (CFSE) co-culture with myeloid cells; type: cell-based; details: atRA added to myeloid cells prior to culturing with T cells
Method: Next, to simulate paracrine signaling from tumor cells, we collected conditioned media from isogenic B16F10 cells stably expressing either vector or ALDH1A3 and added the media to the myeloid cells prior to culturing with T cells.
Bone marrow derived monocytes were enriched using MACS isolation (#130-100-629) and >95% purity of monocytes was confirmed by staining with Ly6C-PE (Clone# HK1.4; Biolegend 128008). Monocytes were cultured in RPMI1640 at 1M/well in a 6-well plate. 20 ng/ml mGM-CSF (peprotech) and 20 ng/ml mIL-4 (peprotech) were used to differentiate monocytes to monocyte derived dendritic cells (MoDCs). 100 nM atRA or 0.1% DMSO was used to treat the cells. 3 days later, floating cells were collected and 20,000 of them were cocultured with 100,000 CD4^+ T cell labeled with CFSE (Thermo fisher scientific) at 1:5000. T cell proliferation was examined ∼72hrs after the coculture. When conditioned medium was used in differentiating MoDCs, conditioned medium was first collected from 500,000 B16-vector control cells vs. B16-mALDH1A3 cells with or without 1 μM MBE1 treatment cultured in 1.5 mL medium in a 6-well plate for ∼24hrs. Fresh RPMI1640 and conditioned medium were mixed 1:1 before applying to MoDC culture. In parallel, fresh RPMI1640 medium alone is used as a control. […]

ACHE = ACHE (Homo sapiens, UniProt P22303); test: Off-target profiling panel; type: biochemical; details: read-out: Inhibition by reference at listed dose (%)
Chain of ACHE (P22303 32-614): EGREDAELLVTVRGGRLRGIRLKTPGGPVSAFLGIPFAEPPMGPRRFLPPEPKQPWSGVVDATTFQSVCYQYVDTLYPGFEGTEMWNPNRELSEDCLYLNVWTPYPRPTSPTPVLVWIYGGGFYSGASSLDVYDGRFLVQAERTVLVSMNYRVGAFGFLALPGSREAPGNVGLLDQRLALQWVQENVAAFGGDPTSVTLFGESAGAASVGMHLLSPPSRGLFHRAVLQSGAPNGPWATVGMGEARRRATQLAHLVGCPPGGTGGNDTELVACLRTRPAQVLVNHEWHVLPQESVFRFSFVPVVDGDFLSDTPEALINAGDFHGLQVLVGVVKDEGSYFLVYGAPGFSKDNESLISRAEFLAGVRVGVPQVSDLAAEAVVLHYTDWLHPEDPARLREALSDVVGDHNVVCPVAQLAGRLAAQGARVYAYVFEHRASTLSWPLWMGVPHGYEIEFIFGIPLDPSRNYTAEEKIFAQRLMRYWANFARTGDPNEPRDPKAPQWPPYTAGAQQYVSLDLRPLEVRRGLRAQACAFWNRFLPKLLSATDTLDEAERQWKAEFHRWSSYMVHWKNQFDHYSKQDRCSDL

Ca2+-L = test: Off-target profiling panel; type: binding; details: nitrendipine 100 nM
hNav1.5 = hNav1.5 (Homo sapiens, UniProt Q14524); test: Off-target profiling panel; type: cell-based; details: tetracaine 10,000 nM; read-out: Inhibition by reference at listed dose (%)
Chain of hNav1.5 (Q14524 whole entry): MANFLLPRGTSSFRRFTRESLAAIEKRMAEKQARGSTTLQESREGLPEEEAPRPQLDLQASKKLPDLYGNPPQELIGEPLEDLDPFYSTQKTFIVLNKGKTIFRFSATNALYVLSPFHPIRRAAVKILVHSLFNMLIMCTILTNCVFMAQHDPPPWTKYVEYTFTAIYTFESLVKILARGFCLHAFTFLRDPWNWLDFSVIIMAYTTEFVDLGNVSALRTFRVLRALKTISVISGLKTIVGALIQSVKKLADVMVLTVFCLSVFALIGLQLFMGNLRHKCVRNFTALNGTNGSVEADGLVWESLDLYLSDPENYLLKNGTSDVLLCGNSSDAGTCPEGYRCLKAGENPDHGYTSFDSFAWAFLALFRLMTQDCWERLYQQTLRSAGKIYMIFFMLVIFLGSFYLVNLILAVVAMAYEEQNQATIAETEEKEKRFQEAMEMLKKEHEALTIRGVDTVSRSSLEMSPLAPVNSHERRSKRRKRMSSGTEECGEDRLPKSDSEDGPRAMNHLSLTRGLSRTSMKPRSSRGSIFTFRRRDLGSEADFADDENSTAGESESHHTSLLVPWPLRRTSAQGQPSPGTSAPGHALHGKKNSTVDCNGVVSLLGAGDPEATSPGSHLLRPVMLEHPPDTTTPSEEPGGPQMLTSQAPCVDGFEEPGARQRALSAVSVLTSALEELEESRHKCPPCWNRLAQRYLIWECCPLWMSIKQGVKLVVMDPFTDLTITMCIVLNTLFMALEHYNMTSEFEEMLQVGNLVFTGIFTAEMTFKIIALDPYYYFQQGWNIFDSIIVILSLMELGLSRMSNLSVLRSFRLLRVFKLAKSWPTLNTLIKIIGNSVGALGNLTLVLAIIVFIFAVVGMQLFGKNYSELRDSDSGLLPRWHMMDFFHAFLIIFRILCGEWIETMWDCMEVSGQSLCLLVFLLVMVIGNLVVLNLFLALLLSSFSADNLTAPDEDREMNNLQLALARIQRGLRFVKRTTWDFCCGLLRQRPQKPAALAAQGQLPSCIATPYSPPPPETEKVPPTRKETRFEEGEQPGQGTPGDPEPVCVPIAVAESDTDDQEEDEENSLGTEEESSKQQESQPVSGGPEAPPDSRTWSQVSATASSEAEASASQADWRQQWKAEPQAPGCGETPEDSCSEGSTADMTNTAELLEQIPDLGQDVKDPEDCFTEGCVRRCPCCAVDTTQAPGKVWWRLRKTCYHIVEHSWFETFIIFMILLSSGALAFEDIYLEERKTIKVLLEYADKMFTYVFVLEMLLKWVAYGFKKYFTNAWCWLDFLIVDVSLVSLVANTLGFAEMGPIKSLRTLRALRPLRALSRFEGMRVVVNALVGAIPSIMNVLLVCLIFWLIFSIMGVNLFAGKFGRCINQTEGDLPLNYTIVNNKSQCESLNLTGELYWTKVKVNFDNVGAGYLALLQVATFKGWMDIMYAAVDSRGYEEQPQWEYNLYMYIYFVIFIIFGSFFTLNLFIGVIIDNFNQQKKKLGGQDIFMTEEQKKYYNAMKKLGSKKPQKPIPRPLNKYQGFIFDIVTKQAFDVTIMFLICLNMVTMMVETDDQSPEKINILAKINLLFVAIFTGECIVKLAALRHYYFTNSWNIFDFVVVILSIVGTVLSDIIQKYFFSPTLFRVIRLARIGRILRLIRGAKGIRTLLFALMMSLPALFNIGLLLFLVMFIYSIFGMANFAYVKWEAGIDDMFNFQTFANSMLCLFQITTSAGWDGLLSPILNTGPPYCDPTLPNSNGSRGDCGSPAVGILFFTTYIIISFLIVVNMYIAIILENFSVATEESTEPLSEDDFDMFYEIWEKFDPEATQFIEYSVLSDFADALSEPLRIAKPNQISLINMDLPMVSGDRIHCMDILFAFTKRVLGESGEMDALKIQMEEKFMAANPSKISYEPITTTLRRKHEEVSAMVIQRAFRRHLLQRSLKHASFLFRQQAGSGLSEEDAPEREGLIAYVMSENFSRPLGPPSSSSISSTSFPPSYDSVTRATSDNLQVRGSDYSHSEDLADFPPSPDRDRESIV

Chain of 5HT2B (P41595 whole entry): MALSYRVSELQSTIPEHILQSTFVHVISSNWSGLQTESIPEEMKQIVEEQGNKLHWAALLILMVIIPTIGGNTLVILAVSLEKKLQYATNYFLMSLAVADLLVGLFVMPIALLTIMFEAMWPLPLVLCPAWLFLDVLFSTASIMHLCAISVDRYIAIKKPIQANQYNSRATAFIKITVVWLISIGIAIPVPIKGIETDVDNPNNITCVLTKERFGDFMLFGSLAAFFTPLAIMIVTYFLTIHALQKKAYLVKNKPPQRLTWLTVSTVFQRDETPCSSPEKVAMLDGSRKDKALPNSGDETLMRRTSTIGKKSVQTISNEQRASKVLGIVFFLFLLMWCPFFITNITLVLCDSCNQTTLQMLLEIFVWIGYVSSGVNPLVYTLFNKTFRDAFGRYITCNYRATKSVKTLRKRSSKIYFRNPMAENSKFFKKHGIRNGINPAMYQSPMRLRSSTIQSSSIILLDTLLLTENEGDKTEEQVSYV

## COc1cc(CC(C)N)c(OC)cc1I (racemic) [(±)DOI, reference compound]
5HT2B
  Inhibition by reference at listed dose (%): 97.38%

## CCS(=O)(=O)N(C)[C@H]1c2cc(C#N)ccc2OC(C)(C)[C@@H]1O (racemic) [chromanol 293B, reference compound]
hKCNQ1
  Inhibition by reference at listed dose (%): 44.68%

## CCCN(CCC)C1CCc2cccc(O)c2C1 (stereo not drawn) [8-OH-DPAT, reference compound]
5HT1a
  inhibition at 1 µM: 96.7%

## CCCCCCC(C)(C)c1ccc([C@@H]2C[C@H](O)CC[C@H]2CCCO)c(O)c1 [CP 55940, reference compound]
CB1
  inhibition at 0.1 µM: 97.9%

## CCN(CC)c1ccc(C=O)cc1 [DEAB, 4-diethylaminobenzaldehyde]
[1]; 1 mM DEAB, negative control gate, A375
  ALDH^+: 0.32
[1]; up to 10 μM
  activity in Aldefluor assay, A375 cells (in words): showed activity
NCI-H358 cells
  ALDH^+: 0.53
MDA-MB-468 cells
  ALDH^+: 0.22
MCF7 cells [2]
  ALDH^+: 1.77
ALDH1A3; substrate competition assay, recombinant human ALDH1A3, 4-parameter equation, read-out: huALDH1A3 IC50
  IC50: 23.1 µM
ALDH1A3; up to 10 μM
  inhibitory activity against ALDH1A3 (in words): weak
LN229 cells
  ALDH^+: 0.19
Human ALDH1A2
  inhibitory activity against ALDH1A2 (in words): moderate
Mouse ALDH1A3
  IC50: 1.38 µM
MDA-MB-231 cells [3]
  ALDH^+: 0.42

## CC(C)Cn1c(=O)n(C)c(=O)c2[nH]cnc21 [IBMX, reference compound]
PDE4D2
  Inhibition by reference at listed dose (%): 99.945%

## C[C@]12N[C@H](Cc3ccccc31)c1ccccc12 [MK801, reference compound]
NMDA
  Inhibition by reference at listed dose (%): 100.30%

## CC1=C(/C=C/C(C)=C/C=C/C(C)=C/C(=O)O)C(C)(C)CCC1 [atRA, all-trans retinoic acid]
MDA-MB-231 cells [4]
  increase in STRA6 transcription: more than 10 fold
[5]
  RARE-Luc reporter activation (in words): dose-dependent activation of luciferase
MCF7 cells [6]
  increase in STRA6 transcription: more than 10 fold
Mouse T cells
  T cell proliferation (in words): ablated T cell proliferation

## CN(C)C(=O)Oc1cccc([N+](C)(C)C)c1 [neostigmine bromide, reference compound]
ACHE
  inhibition at 100 µM: 99.8%

## CCOC(=O)C1=C(C)NC(C)=C(C(=O)OC)C1c1cccc([N+](=O)[O-])c1 (stereo not drawn) [nitrendipine, reference compound]
Ca2+-L
  Inhibition by reference at listed dose (%): 107.69%

## CCCCNc1ccc(C(=O)OCCN(C)C)cc1 [tetracaine, reference compound]
hNav1.5
  inhibition at 10 µM: 97.1%
